Assay results published in ChEMBL document CHEMBL1938337, “Discovery of novel, potent, and selective inhibitors of 3-phosphoinositide-dependent kinase (PDK1)” (J Med Chem, 2011).
pKi: −log10 of the molar value.

Columns and labels:
[1] = target: T1, 3-phosphoinositide-dependent protein kinase 1 (Homo sapiens, UniProt O15530); assay: Inhibition of recombinant human His-tagged PDK1 catalytic domain using Ac-Sox-PKTFCGTPEYLAPEVRREPRILSEEEQEMFRDFDYIAD-NH2 as substrate by fluorescence-based spectrophotometry
T1 sequence (O15530 whole entry): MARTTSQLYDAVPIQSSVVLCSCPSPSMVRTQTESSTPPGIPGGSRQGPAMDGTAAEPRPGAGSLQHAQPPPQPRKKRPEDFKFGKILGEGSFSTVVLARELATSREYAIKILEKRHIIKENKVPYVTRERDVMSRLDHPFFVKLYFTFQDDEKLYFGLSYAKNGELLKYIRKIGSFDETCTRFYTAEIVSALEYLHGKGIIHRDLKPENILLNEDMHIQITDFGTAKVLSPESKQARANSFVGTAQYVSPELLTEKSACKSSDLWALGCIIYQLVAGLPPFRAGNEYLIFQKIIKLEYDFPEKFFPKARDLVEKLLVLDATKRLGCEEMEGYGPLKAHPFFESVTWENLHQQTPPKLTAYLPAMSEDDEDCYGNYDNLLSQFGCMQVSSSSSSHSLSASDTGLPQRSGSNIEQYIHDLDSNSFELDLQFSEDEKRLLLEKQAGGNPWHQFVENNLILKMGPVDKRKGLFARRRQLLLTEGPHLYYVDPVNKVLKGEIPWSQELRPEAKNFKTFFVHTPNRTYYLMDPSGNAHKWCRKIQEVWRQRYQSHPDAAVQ

[2] = target: Mitogen-activated protein kinase kinase kinase kinase 4 (Homo sapiens) (UniProt O95819); assay: Inhibition of MAP4K4 at 1 uM
[3] = target: Myosin light chain kinase 2, skeletal/cardiac muscle (Homo sapiens) (UniProt Q9H1R3); assay: Inhibition of MYLK2 at 1 uM
[4] = target: Rho-associated protein kinase 1 (Homo sapiens) (UniProt Q13464); assay: Inhibition of ROCK1 at 1 uM
[5] = target: Cyclin-dependent kinase 2/cyclin A (Homo sapiens) (UniProt P24941+P20248+P78396); assay: Inhibition of CDK2/cyclinA at 1 uM; format: protein-complex assay
[6] = target: Serine/threonine-protein kinase PAK 4 (Homo sapiens) (UniProt O96013); assay: Inhibition of PAK4 at 1 uM
[7] = target: Serine/threonine-protein kinase Chk2 (Homo sapiens) (UniProt O96017); assay: Inhibition of CHEK2 at 1 uM
[8] = target: Mitogen-activated protein kinase 1 (Homo sapiens) (UniProt P28482); assay: Inhibition of MAPK1 at 1 uM
[9] = target: T2, Serine/threonine-protein kinase Sgk1 (Homo sapiens) (UniProt O00141); assay: Inhibition of SGK at 1 uM
T2 sequence (whole entry): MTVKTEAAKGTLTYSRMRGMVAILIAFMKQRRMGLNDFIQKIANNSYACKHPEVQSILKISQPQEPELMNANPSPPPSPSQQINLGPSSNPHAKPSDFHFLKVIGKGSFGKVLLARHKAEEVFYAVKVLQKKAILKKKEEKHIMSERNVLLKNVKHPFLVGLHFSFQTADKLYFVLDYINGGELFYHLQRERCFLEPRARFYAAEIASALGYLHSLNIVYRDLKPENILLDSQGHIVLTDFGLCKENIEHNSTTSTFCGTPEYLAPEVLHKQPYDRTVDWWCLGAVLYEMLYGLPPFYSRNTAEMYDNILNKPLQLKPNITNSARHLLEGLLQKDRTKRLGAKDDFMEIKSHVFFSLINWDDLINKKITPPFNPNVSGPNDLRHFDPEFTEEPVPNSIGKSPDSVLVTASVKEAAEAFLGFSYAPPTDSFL

[10] = target: Proto-oncogene tyrosine-protein kinase Src (Homo sapiens) (UniProt P12931); assay: Inhibition of SRC at 1 uM
[11] = target: T3, Tyrosine-protein kinase JAK3 (Homo sapiens) (UniProt P52333); assay: Inhibition of JAK3 at 1 uM
T3 sequence (whole entry): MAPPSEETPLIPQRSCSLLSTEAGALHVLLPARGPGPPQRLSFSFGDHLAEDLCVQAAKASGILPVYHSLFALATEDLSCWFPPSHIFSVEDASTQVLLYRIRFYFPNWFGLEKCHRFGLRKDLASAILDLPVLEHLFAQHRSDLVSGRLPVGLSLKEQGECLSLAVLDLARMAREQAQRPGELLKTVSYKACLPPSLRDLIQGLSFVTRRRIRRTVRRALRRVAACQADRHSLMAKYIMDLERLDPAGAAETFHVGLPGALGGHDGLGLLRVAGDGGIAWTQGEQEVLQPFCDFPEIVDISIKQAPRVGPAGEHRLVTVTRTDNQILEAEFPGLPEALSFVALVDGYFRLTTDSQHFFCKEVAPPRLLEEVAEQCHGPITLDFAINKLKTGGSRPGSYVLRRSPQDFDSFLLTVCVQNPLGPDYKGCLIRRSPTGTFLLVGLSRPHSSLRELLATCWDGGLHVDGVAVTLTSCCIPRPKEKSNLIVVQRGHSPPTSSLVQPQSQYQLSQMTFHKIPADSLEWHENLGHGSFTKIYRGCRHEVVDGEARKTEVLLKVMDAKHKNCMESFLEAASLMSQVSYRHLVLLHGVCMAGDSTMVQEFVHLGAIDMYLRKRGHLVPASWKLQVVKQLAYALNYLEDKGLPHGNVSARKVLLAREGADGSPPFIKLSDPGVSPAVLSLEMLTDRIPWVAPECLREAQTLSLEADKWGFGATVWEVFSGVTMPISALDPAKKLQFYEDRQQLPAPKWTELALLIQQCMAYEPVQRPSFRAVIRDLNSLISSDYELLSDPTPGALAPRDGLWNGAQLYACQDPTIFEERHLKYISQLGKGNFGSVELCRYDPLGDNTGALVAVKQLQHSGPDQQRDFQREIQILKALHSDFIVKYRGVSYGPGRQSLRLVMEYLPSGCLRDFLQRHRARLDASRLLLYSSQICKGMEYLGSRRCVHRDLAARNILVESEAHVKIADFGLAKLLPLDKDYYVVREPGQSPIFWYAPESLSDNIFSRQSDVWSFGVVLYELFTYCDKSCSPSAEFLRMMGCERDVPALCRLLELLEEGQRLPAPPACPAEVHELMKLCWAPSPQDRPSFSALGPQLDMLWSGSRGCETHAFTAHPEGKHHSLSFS

[12] = target: Hepatocyte growth factor receptor (Homo sapiens) (UniProt P08581); assay: Inhibition of MET at 1 uM
[13] = Clearance in human liver microsomes; format: ADME, Microsome; conditions: read-out: CLH
[14] = target: Casein kinase II subunit alpha' (Homo sapiens) (UniProt P19784); assay: Inhibition of CSNK2A2 at 1 uM
[15] = target: Serine/threonine-protein kinase pim-2 (Homo sapiens) (UniProt Q9P1W9); assay: Inhibition of PIM2 at 1 uM
Serine/threonine-protein kinase pim-2 (Homo sapiens), sequence (Q9P1W9 whole entry, looked up): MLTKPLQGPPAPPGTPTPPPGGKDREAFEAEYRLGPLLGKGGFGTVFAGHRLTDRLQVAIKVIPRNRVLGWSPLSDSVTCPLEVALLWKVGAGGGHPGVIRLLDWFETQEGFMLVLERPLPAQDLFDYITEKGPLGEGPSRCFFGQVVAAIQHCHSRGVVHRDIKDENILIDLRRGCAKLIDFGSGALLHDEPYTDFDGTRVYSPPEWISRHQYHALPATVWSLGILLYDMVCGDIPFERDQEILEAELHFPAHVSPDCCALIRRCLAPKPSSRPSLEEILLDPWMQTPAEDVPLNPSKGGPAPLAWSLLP

Serine/threonine-protein kinase PAK 4 (Homo sapiens), sequence (O96013 whole entry, looked up): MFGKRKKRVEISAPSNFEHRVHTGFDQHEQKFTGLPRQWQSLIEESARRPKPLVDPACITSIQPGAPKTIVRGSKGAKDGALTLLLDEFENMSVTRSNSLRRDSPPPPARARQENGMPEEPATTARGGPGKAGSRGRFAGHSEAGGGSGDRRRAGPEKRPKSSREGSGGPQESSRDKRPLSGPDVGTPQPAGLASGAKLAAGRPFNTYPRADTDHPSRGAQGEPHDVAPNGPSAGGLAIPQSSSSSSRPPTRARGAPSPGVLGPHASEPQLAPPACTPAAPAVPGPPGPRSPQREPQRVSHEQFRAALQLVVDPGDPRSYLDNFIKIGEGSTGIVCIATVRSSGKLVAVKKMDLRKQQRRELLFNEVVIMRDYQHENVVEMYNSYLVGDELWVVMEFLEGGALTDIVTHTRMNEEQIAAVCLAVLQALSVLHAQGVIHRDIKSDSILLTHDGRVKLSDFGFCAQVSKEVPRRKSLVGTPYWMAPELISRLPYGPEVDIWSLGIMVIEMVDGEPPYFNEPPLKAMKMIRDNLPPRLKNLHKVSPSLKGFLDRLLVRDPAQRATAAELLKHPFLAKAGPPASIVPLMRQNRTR
Mitogen-activated protein kinase 1 (Homo sapiens), sequence (P28482 whole entry): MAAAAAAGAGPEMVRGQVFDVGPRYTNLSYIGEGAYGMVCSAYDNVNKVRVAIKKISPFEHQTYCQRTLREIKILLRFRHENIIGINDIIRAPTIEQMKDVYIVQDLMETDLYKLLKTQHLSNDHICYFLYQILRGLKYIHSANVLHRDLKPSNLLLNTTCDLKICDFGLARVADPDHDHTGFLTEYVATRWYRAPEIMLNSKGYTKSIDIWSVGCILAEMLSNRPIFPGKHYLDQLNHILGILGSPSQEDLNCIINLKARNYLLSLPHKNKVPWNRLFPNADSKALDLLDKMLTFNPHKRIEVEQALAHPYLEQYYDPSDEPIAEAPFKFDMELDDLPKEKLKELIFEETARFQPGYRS
Myosin light chain kinase 2, skeletal/cardiac muscle (Homo sapiens), sequence (Q9H1R3 whole entry): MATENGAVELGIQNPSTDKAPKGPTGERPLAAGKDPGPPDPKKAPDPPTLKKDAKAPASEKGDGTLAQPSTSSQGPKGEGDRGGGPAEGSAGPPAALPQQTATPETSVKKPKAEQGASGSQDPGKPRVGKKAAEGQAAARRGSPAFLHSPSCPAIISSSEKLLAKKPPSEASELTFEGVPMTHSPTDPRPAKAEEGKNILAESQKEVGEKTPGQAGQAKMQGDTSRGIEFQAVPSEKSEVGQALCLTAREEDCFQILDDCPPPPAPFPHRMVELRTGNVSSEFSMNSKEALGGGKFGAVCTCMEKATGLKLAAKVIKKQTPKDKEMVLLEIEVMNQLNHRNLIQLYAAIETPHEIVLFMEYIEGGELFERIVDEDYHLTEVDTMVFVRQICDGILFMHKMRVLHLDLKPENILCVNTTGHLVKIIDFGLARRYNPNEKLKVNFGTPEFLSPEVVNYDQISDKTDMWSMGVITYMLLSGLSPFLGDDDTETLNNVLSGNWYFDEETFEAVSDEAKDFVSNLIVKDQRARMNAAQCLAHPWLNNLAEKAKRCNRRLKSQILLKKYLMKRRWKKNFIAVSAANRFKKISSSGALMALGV
Casein kinase II subunit alpha' (Homo sapiens), sequence (P19784 whole entry, looked up): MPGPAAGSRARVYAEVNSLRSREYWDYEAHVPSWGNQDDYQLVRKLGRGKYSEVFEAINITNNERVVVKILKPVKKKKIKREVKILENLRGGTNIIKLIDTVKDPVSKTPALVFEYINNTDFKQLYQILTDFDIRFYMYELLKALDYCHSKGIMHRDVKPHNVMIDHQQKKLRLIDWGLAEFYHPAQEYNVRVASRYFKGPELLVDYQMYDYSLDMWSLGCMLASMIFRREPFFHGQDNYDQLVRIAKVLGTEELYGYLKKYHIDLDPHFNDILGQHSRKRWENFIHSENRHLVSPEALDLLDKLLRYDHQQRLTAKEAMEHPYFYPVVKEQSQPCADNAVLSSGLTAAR
Proto-oncogene tyrosine-protein kinase Src (Homo sapiens), sequence (P12931 2-536 limits assumed): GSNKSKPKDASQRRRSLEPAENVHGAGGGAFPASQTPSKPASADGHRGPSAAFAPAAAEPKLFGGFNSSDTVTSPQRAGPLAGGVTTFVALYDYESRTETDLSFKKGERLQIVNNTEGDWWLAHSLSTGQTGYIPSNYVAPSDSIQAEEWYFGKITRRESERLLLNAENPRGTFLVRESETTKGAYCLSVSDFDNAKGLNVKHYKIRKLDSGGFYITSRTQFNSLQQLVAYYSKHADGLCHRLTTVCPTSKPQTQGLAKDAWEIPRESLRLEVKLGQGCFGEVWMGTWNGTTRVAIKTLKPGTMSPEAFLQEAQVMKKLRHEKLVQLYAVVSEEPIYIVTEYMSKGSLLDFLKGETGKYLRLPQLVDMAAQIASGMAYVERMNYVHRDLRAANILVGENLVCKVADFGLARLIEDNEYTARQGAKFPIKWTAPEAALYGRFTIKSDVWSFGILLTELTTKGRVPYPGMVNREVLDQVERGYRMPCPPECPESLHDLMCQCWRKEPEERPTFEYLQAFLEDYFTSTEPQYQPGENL
Serine/threonine-protein kinase Chk2 (Homo sapiens), sequence (O96017 whole entry): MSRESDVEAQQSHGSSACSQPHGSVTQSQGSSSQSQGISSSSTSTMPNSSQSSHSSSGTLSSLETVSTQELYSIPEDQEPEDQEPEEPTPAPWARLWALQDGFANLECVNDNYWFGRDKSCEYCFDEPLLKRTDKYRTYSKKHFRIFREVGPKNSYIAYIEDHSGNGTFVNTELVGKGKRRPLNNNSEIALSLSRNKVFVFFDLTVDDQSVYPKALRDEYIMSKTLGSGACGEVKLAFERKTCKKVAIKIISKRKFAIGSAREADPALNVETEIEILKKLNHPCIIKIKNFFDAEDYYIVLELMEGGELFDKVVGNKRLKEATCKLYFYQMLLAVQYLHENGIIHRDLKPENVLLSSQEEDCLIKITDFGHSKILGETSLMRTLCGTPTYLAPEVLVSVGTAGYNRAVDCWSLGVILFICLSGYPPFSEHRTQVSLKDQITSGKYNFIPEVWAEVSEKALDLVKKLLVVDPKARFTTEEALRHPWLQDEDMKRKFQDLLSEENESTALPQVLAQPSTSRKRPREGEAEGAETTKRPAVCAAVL
Rho-associated protein kinase 1 (Homo sapiens), sequence (Q13464 2-1354 limits assumed): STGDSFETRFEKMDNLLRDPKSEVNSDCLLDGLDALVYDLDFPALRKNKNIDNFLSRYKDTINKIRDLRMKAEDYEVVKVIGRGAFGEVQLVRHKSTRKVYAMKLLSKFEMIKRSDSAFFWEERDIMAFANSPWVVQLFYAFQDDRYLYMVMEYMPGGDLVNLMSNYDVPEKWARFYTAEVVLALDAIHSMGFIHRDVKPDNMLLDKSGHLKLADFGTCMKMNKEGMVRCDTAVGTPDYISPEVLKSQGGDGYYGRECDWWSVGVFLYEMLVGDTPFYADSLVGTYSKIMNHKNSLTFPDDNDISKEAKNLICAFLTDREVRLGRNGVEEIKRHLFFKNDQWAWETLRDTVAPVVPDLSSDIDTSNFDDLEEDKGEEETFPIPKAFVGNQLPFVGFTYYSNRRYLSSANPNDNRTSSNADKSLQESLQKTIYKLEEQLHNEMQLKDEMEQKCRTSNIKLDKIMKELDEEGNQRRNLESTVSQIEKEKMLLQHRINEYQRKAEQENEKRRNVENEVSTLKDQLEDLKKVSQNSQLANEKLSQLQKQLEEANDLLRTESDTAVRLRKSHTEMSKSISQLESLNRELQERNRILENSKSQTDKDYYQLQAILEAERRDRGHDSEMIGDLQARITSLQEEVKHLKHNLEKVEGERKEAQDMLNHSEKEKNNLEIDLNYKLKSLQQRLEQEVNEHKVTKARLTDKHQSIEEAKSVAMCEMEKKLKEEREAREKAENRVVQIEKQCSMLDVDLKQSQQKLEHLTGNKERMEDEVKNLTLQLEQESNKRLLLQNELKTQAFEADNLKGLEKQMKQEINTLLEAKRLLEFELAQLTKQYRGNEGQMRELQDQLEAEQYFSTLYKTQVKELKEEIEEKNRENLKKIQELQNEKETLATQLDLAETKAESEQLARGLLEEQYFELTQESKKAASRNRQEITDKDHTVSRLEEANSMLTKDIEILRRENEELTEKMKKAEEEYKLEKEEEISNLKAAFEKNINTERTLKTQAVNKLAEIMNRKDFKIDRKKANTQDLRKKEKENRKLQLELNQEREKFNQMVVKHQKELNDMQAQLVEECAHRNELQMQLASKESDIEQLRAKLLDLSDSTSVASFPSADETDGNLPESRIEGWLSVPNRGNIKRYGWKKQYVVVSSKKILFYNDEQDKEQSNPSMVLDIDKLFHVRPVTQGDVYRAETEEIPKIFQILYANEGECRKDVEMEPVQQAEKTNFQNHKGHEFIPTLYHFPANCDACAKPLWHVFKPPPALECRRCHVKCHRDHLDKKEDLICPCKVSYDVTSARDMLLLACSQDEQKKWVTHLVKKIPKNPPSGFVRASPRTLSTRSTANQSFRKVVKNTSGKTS

| pKi [1] | inhibition [2] [%] | inhibition [3] [%] | inhibition [4] [%] | inhibition [5] [%] | inhibition [6] [%] | inhibition [7] [%] | inhibition [8] [%] | inhibition [9] [%] | inhibition [10] [%] | inhibition [11] [%] | inhibition [12] [%] | microsomal CLint [13] [µL/min/mg] | inhibition [14] [%] | inhibition [15] [%] | SMILES |
| --- | --- | --- | --- | --- | --- | --- | --- | --- | --- | --- | --- | --- | --- | --- | --- |
| 9.15 | 57 | 3 | 4 | 44 | 63 | 98 | 5 | 48 | 29 | 16 | 12 | 62 | 4 | 9 | CC(C)n1cc(C(=O)c2cncc(N[C@@H]3CCN(C=O)[C@@H]3c3ccc(F)cc3)n2)c2c(N)ncnc21 |
| 8.85 | 23 | -2 | -5 | 12 | 25 | 94 | 3 | 30 | 14 | -2 | 4 | 110 | 2 | -2 | CC(=O)N1CC[C@@H](Nc2cncc(C(=O)c3cn(C(C)C)c4ncnc(N)c34)n2)[C@H]1c1ccccc1 |
| 8.85 | 50 | -8 | 5 | 34 | 46 | 99 | -4 | 61 | 21 | 6 | 8 | 120 | 8 | 7 | CC(=O)N1CC[C@@H](Nc2cncc(C(=O)c3cn(C(C)C)c4ncnc(N)c34)n2)[C@H]1c1ccc(F)cc1 |
